Patent US12655116B2, “Substituted isophthalic acid diamides” (Bayer Aktiengesellschaft, priority 2020, dated 2026)

Experiments:
[1] = test system: ABUTH; test: Pre-emergence herbicidal action against ABUTH; assay type: in vivo, Abutilon theophrasti
Procedure, shortened: (§1)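 Visual rating at 3 weeks vs untreated pots; 0–100% scale, 100% = plants died. Treatment: aqueous WP/EC spray onto covering soil, 600–800 l/ha, 0.2% wetter, seeds in sandy loam.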

[2] = test system: ALOMY; test: Pre-emergence herbicidal action against ALOMY; assay type: in vivo, Alopecurus myosuroides
Procedure, shortened: as §1

[3] = test system: AMARE; test: Pre-emergence herbicidal action against AMARE; assay type: in vivo, Amaranthus retroflexus
Procedure, shortened: as §1

[4] = test system: AVEFA; test: Pre-emergence herbicidal action against AVEFA; assay type: in vivo, Avena fatua; settings: pre-emergence
Procedure, shortened: as §1

[5] = test system: ECHCG; test: Pre-emergence herbicidal action against ECHCG; assay type: in vivo, Echinochloa crus-galli; settings: 80 g/ha
Procedure, shortened: as §1

[6] = test system: MATIN; test: Pre-emergence herbicidal action against MATIN; assay type: in vivo, Matricaria inodora
Procedure, shortened: as §1

[7] = test system: PHBPU; test: Pre-emergence herbicidal action against PHBPU; assay type: in vivo, Pharbitis purpurea; settings: dosage 80 g/ha
Procedure, shortened: as §1

[8] = test system: POLCO; test: Pre-emergence herbicidal action against POLCO; assay type: in vivo, Polygonum convolvulus; settings: dosage 80 g/ha
Procedure, shortened: as §1

[9] = test system: SETVI; test: Pre-emergence herbicidal action against SETVI; assay type: in vivo, Setaria viridis
Procedure, shortened: as §1

[10] = test system: VERPE; test: Pre-emergence herbicidal action against VERPE; assay type: in vivo, Veronica persica
Procedure, shortened: as §1

[11] = test system: VIOTR; test: Pre-emergence herbicidal action against VIOTR; assay type: in vivo, Viola tricolor
Procedure, shortened: as §1

[12] = test system: ABUTH; test: Post-emergence herbicidal action against ABUTH; assay type: in vivo, Abutilon theophrasti; settings: visual assessment about 3 weeks after treatment vs untreated controls
Procedure, shortened: (§2)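 Greenhouse pot plants in sandy loam were sprayed at the one-leaf stage, 2 to 3 weeks after sowing, with WP or EC formulations as aqueous suspension or emulsion (600 to 800 l/ha water, 0.2% wetting agent). About 3 weeks later, damage was scored visually against untreated controls as % action (100% = dead, 0% = like control).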

[13] = test system: ALOMY; test: Post-emergence herbicidal action against ALOMY; assay type: in vivo, Alopecurus myosuroides; settings: visual assessment about 3 weeks after treatment vs untreated controls
Procedure, shortened: as §2

[14] = test system: AMARE; test: Post-emergence herbicidal action against AMARE; assay type: in vivo, Amaranthus retroflexus; settings: 20 g/ha, visual assessment about 3 weeks after treatment, 100% = plants have died, 0% = like control plants
Procedure, shortened: as §2

[15] = test system: AVEFA; test: Post-emergence herbicidal action against AVEFA; assay type: in vivo, Avena fatua; settings: visual assessment about 3 weeks after treatment, 100% = plants have died, 0% = like control plants
Procedure, shortened: as §2

[16] = test system: ECHCG; test: Post-emergence herbicidal action against ECHCG; assay type: in vivo, Echinochloa crus-galli
Procedure, shortened: as §2

[17] = test system: MATIN; test: Post-emergence herbicidal action against MATIN; assay type: in vivo, Matricaria inodora; settings: Tripleurospermum inodorum, 504 h
Procedure, shortened: as §2

[18] = test system: PHBPU; test: Post-emergence herbicidal action against PHBPU; assay type: in vivo, Pharbitis purpurea
Procedure, shortened: as §2

[19] = test system: SETVI; test: Post-emergence herbicidal action against SETVI; assay type: in vivo, Setaria viridis
Procedure, shortened: as §2

[20] = test system: VERPE; test: Post-emergence herbicidal action against VERPE; assay type: in vivo, Veronica persica; settings: 20 g/ha
Procedure, shortened: as §2

[21] = test system: VIOTR; test: Post-emergence herbicidal action against VIOTR; assay type: in vivo, Viola tricolor; settings: Viola tricolor, 504 h
Procedure, shortened: as §2

[22] = test system: DIGSA; test: Pre-emergence herbicidal action against DIGSA; assay type: in vivo, Digitaria sanguinalis
Procedure, shortened: as §1

[23] = test system: DIGSA; test: Post-emergence herbicidal action against DIGSA; assay type: in vivo, Digitaria sanguinalis
Procedure, shortened: as §2

[24] = 80 g/ha, scored visually after 3 weeks vs untreated controls (100% = plants have died, 0% = like control plants)

SMILES: CCn1nnnc1NC(=O)c1ccc(C(F)F)c(C(=O)NC(C)C)c1C [Example 2-345]
- pest or weed control at 80 g/ha ([1]; Abutilon theophrasti, 504 h, 80 g/ha, scored visually after 3 weeks vs untreated controls (100% = plants have died, 0% = like control plants)): 100%
- pest or weed control at 20 g/ha ([1]; Abutilon theophrasti, 504 h, dosage 20 g/ha, scored visually after 3 weeks vs untreated controls, 100% = plants have died, 0% = like control plants, read-out: Pre-emergence action against ABUTH (herbicidal activity in percent)): 90%
- pest or weed control at 80 g/ha ([2]; Alopecurus myosuroides, 504 h, 80 g/ha, pre-emergence, scored visually after 3 weeks vs untreated controls (100% = plants have died, 0% = like control plants)): 80%
- pest or weed control at 20 g/ha ([3]; Amaranthus retroflexus, 504 h, 20 g/ha, scored visually after 3 weeks vs untreated controls, 100% = plants have died, 0% = like control plants): 100%
- pest or weed control at 80 g/ha ([3]; Amaranthus retroflexus, 504 h, 80 g/ha, scored visually after 3 weeks vs untreated controls, 100% = plants have died, 0% = like control plants): 100%
- pest or weed control at 80 g/ha ([4]; Avena fatua, 504 h, 80 g/ha): 80%
- pest or weed control at 20 g/ha ([4]; Avena fatua, 504 h, 20 g/ha, scored visually after 3 weeks, 100% = plants have died, 0% = like control plants): 80%
- pest or weed control at 80 g/ha ([5]; Echinochloa crus-galli, 504 h): 90%
- pest or weed control at 20 g/ha ([6]; Tripleurospermum inodorum, 504 h, dosage 20 g/ha): 100%
- pest or weed control at 80 g/ha ([6]; Tripleurospermum inodorum, 504 h, dosage 80 g/ha): 100%
- pest or weed control at 80 g/ha ([7]; Ipomoea purpurea, 504 h): 80%
- pest or weed control at 80 g/ha ([8]; Fallopia convolvulus, 504 h): 90%
- pest or weed control at 80 g/ha ([9]; Setaria viridis, 504 h, dosage 80 g/ha): 100%
- pest or weed control at 80 g/ha ([10]; Veronica persica, 504 h, dosage 80 g/ha): 100%
- pest or weed control at 20 g/ha ([11]; Viola tricolor, 504 h, dosage 20 g/ha): 80%
- pest or weed control at 80 g/ha ([11]; Viola tricolor, 504 h, dosage 80 g/ha): 100%
- pest or weed control at 5 g/ha ([12]; Abutilon theophrasti, 504 h, dosage 5 g/ha): 90%
- pest or weed control at 20 g/ha ([12]; Abutilon theophrasti, 504 h, dosage 20 g/ha): 90%
- pest or weed control at 5 g/ha ([13]; Alopecurus myosuroides, 504 h, dosage 5 g/ha): 80%
- pest or weed control at 20 g/ha ([13]; Alopecurus myosuroides, 504 h, dosage 20 g/ha): 80%
- pest or weed control at 20 g/ha ([14]; Amaranthus retroflexus, 504 h): 100%
- pest or weed control at 20 g/ha ([15]; Avena fatua, 504 h, 20 g/ha): 80%
- pest or weed control at 20 g/ha ([16]; Echinochloa crus-galli, 504 h, dosage 20 g/ha): 80%
- pest or weed control at 5 g/ha ([17]; dosage 5 g/ha): 90%
- pest or weed control at 20 g/ha ([17]; dosage 20 g/ha): 100%
- pest or weed control at 20 g/ha ([18]; Ipomoea purpurea, 504 h, dosage 20 g/ha): 100%
- pest or weed control at 5 g/ha ([19]; Setaria viridis, 504 h, dosage 5 g/ha): 80%
- pest or weed control at 20 g/ha ([19]; Setaria viridis, 504 h, dosage 20 g/ha): 100%
- pest or weed control at 20 g/ha ([20]; Veronica persica, 504 h): 80%
- pest or weed control at 5 g/ha ([21]; 5 g/ha): 90%
- pest or weed control at 20 g/ha ([21]; 20 g/ha): 90%

SMILES: CCn1nnnc1NC(=O)c1ccc(C(F)(F)F)c(C(=O)NCCOC)c1C [Example 2-34]
- Pre-emergence action against ABUTH (herbicidal activity) [1, 24]: 100%
- Pre-emergence action against ABUTH (herbicidal activity in percent) ([1]; dosage 20 g/ha, scored visually after 3 weeks vs untreated controls, 100% = plants have died, 0% = like control plants): 80%
- Pre-emergence action against ALOMY ([2]; 20 g/ha, scored visually after 3 weeks, 100% = plants have died, 0% = like control plants): 80%
- Pre-emergence action against ALOMY (herbicidal activity) ([2]; 80 g/ha, pre-emergence, scored visually after 3 weeks vs untreated controls (100% = plants have died, 0% = like control plants)): 90%
- Pre-emergence action against AMARE in % ([3]; 20 g/ha, scored visually after 3 weeks vs untreated controls, 100% = plants have died, 0% = like control plants): 90%
- Pre-emergence action against AMARE in % [3, 24]: 100%
- Pre-emergence action against AVEFA in % ([4]; 80 g/ha): 90%
- Pre-emergence action against ECHCG in % [5]: 90%
- Pre-emergence action against MATIN in % ([6]; dosage 20 g/ha): 90%
- Pre-emergence action against MATIN in % ([6]; dosage 80 g/ha): 100%
- Pre-emergence action against PHBPU in % [7]: 80%
- Pre-emergence action against POLCO in % [8]: 90%
- Pre-emergence action against SETVI in % ([9]; dosage 20 g/ha): 100%
- Pre-emergence action against SETVI in % ([9]; dosage 80 g/ha): 100%
- Pre-emergence action against VERPE in % ([10]; dosage 20 g/ha): 90%
- Pre-emergence action against VERPE in % ([10]; dosage 80 g/ha): 90%
- Pre-emergence action against VIOTR in % ([11]; dosage 20 g/ha): 100%
- Pre-emergence action against VIOTR in % ([11]; dosage 80 g/ha): 100%
- Pre-emergence action against DIGSA in % ([22]; dosage 20 g/ha): 100%
- Pre-emergence action against DIGSA in % ([22]; dosage 80 g/ha): 100%
- Post-emergence action against ABUTH in % ([12]; dosage 5 g/ha): 90%
- Post-emergence action against ABUTH in % ([12]; dosage 20 g/ha): 90%
- Post-emergence action against ALOMY in % ([13]; dosage 20 g/ha): 100%
- Post-emergence action at 20 g/ha against AMARE in % [14]: 100%
- Post-emergence action at 5 g/ha against AVEFA in % ([15]; 5 g/ha): 80%
- Post-emergence action at 20 g/ha against AVEFA in % ([15]; 20 g/ha): 80%
- Post-emergence action against ECHCG in % ([16]; dosage 5 g/ha): 90%
- Post-emergence action against ECHCG in % ([16]; dosage 20 g/ha): 100%
- Post-emergence action against PHBPU in % ([18]; dosage 5 g/ha): 90%
- Post-emergence action against PHBPU in % ([18]; dosage 20 g/ha): 100%
- Post-emergence action against SETVI in % ([19]; dosage 5 g/ha): 80%
- Post-emergence action against SETVI in % ([19]; dosage 20 g/ha): 90%
- Post-emergence action against VERPE in % [20]: 80%
- Post-emergence action against DIGSA in % ([23]; 5 g/ha): 80%
- Post-emergence action against DIGSA ([23]; 20 g/ha): 100%
